Data published in EP4803513A1, “SUBSTITUTED QUINAZOLINE COMPOUND, PREPARATION METHOD THEREFOR, PHARMACEUTICAL COMBINATION THEREOF, AND USE THEREOF” (Hongyun Biotech Co., Ltd., priority 2023, dated 2025).

Legend:
[1] = test system: BRK-BaF3 cells; assay: Cell antiproliferative activity assay (CCK-8), BRK-BaF3; assay type: cell-based; conditions: 72 h, CCK-8, 3 days incubation
Method: (§1) The activity of compounds against BRK kinase can be evaluated by their inhibition of the growth of the BRK kinase-stably transfected BaF3 cell line (BRK-BaF3) and wild-type BaF3 cells (WT-BaF3). […] The larger the ratio of the half-maximal growth inhibitory concentration (IC50) of a compound between WT-BaF3 and BRK-BaF3 cells, the better the selectivity of the compound.
(§2) BRK-BaF3, WT-BaF3, WEHI cell line, and breast cancer cell line T47D were cultured using RPMI 1640 Basal medium or DMEM (Dulbecco's Modified Eagle Medium) (Shanghai Peiyuan Biotechnology, L220KJ), supplemented with 10% FBS (Gibco, REF 10099-141C) and 1% P/S (Shanghai Peiyuan Biotechnology, S110JV), in an incubator (Thermo 3020) at 37°C with 5% CO2. Cell viability was above 95%. Cells were passaged at a 3:1 ratio every 3-4 days. For WT-BaF3 cells, WEHI cells were first cultured, and their culture supernatant was filtered through a 0.22 µm filter. This supernatant was added at 10% to the regular culture medium to supplement IL-3 required for WT-BaF3 cell proliferation, which served as the culture medium for WT-BaF3. For testing, cells were first collected and counted, then prepared into a cell suspension at 100,000 cells/mL and plated at 100 µL per well. Drug concentrations started from 10 µM and were serially diluted 3:1. After incubation for 3 days, 20 µL of CCK-8 detection reagent (Targetmol C005) was added to each well. After incubation for 2-4 hours, OD450 was measured using a microplate reader (Varioskan LUX, Thermo Scientific). After subtracting the blank background, the curve was fitted and the IC50 was calculated using XLfit software.

[2] = test system: WT-BaF3 cells; assay: Cell antiproliferative activity assay (CCK-8), WT-BaF3 (broad-spectrum cytotoxicity); assay type: cell-based; conditions: 72 h; WT-BaF3 cells (IL-3 supplemented), CCK-8, 3 days incubation
Method: as §1, §2

Structure (SMILES) | IC50 [1] | IC50 [2]
Cc1nccnc1-c1cc(C2CC2)c2nc(Nc3cnn(CCO)c3)ncc2c1 [I-107] | ≤ 20 nM | 500 to 2500 nM
Cc1nccnc1-c1cc(C(F)(F)F)c2nc(Nc3cnn(CCO)c3)ncc2c1 [I-110] | ≤ 20 nM | > 2500 nM
Cc1nn(CCO)cc1Nc1ncc2cc(-c3nnccc3C#N)cc(C(C)C)c2n1 [I-117] | 20 to 100 nM | > 2500 nM
Cc1nn(CCO)cc1Nc1ncc2cc(-c3nnccc3C#N)cc(C3CC3)c2n1 [I-118] | 20 to 100 nM | > 2500 nM
Cc1ccnnc1-c1cc(C(F)(F)F)c2nc(Nc3cn(CCO)nc3C)ncc2c1 [I-122] | ≤ 20 nM | 500 to 2500 nM
Cc1nn(CCO)cc1Nc1ncc2cc(-c3cncnc3)cc(C(C)C)c2n1 [I-123] | 20 to 100 nM | 500 to 2500 nM
Cc1nn(CCO)cc1Nc1ncc2cc(-c3cncnc3N)cc(C(C)C)c2n1 [I-124] | 20 to 100 nM | > 2500 nM
Cc1nn(CCO)cc1Nc1ncc2cc(-c3c(C)ncnc3Cl)cc(C(C)C)c2n1 [I-127] | ≤ 20 nM | > 2500 nM
Cc1nn(CCO)cc1Nc1ncc2cc(-c3c(C)ncnc3C)cc(C(C)C)c2n1 [I-128] | ≤ 20 nM | > 2500 nM
Cc1nn(CCO)cc1Nc1ncc2cc(-c3c(C)ncnc3N)cc(C(C)C)c2n1 [I-129] | 20 to 100 nM | > 2500 nM
Cc1nn(CCO)cc1Nc1ncc2cc(-c3c(C)ncnc3O)cc(C(C)C)c2n1 [I-130] | 20 to 100 nM | > 2500 nM
COc1ncnc(C)c1-c1cc(C(C)C)c2nc(Nc3cn(CCO)nc3C)ncc2c1 [I-131] | ≤ 20 nM | > 2500 nM
Cc1nn(CCO)cc1Nc1ncc2cc(-c3ncnc(C)c3Br)cc(C(C)C)c2n1 [I-139] | ≤ 20 nM | 500 to 2500 nM
Cc1ncnc(C)c1-c1cc(C(C)C)c2nc(Nc3cn(CCO)nc3C(F)F)ncc2c1 [I-141] | 20 to 100 nM | > 2500 nM
Cc1nn(CCCO)cc1Nc1ncc2cc(-c3c(C)ncnc3C)cc(C(C)C)c2n1 [I-142] | ≤ 20 nM | > 2500 nM
Cc1ncnc(C)c1-c1cc(C(C)C)c2nc(Nc3cn(CCO)nc3Cl)ncc2c1 [I-143] | 20 to 100 nM | > 2500 nM
Cc1nn(CC(C)(C)O)cc1Nc1ncc2cc(-c3c(C)ncnc3C)cc(C(C)C)c2n1 [I-144] | ≤ 20 nM | > 2500 nM
Cc1cncnc1-c1cc(C2CC2)c2nc(Nc3cn(CCO)nc3C)ncc2c1 [I-148] | ≤ 20 nM | > 2500 nM
Cc1ncnc(C)c1-c1cc(C(F)(F)F)c2nc(Nc3cnn(CCO)c3)ncc2c1 [I-149] | 20 to 100 nM | > 2500 nM
Cc1nn(CCO)cc1Nc1ncc2cc(-c3c(C)ncnc3C)cc(C(F)(F)F)c2n1 [I-150] | ≤ 20 nM | > 2500 nM
Cc1nn(CCO)cc1Nc1ncc2cc(-c3cncnc3)cc(C(F)(F)F)c2n1 [I-151] | 20 to 100 nM | > 2500 nM
Cc1nn(CCO)cc1Nc1ncc2cc(-c3cncnc3C)cc(C(F)(F)F)c2n1 [I-152] | ≤ 20 nM | > 2500 nM

Structure (SMILES) | IC50 [1] | IC50 [2]
COc1ncncc1-c1cc(C(F)(F)F)c2nc(Nc3cn(CCO)nc3C)ncc2c1 [I-153] | ≤ 20 nM | > 2500 nM
Cc1nn(CCO)cc1Nc1ncc2cc(-c3c(O)cccc3F)cc(C(C)C)c2n1 [I-155] | ≤ 20 nM | 500 to 2500 nM
Cc1ccc(C#N)cc1-c1cc(C(C)C)c2nc(Nc3cnn(CCO)c3C)ncc2c1 [I-170] | ≤ 20 nM | > 2500 nM
Cc1c[nH]c(=O)cc1-c1cc(C(C)C)c2nc(Nc3cnn(CCO)c3C)ncc2c1 [I-181] | 20 to 100 nM | > 2500 nM
Cc1nn(CCO)cc1Nc1ncc2cc(-c3cn(C)nc3C)cc(C(C)C)c2n1 [I-188] | ≤ 20 nM | 500 to 2500 nM
Cc1cn(C)nc1-c1cc(C(C)C)c2nc(Nc3cn(CCO)nc3C)ncc2c1 [I-190] | ≤ 20 nM | 500 to 2500 nM
Cc1cnn(C)c1-c1cc(C(C)C)c2nc(Nc3cn(CCO)nc3C)ncc2c1 [I-191] | ≤ 20 nM | 500 to 2500 nM
Cc1nc(P(C)(C)=O)ccc1Nc1ncc2cc(-c3nccnc3C)cc(C(C)C)c2n1 [II-1] | ≤ 20 nM | > 2500 nM
COc1nc(P(C)(C)=O)ccc1Nc1ncc2cc(-c3nccnc3C)cc(C(C)C)c2n1 [II-2] | ≤ 20 nM | > 2500 nM
Cc1nccnc1-c1cc(C(C)C)c2nc(Nc3ccc(P(C)(C)=O)nc3)ncc2c1 [II-3] | ≤ 20 nM | > 2500 nM
Cc1cc(P(C)(C)=O)ncc1Nc1ncc2cc(-c3nccnc3C)cc(C(C)C)c2n1 [II-4] | 20 to 100 nM | > 2500 nM
COc1cc(P(C)(C)=O)ncc1Nc1ncc2cc(-c3nccnc3C)cc(C(C)C)c2n1 [II-5] | ≤ 20 nM | > 2500 nM
Cc1cc(Nc2ncc3cc(-c4nccnc4C)cc(C(C)C)c3n2)cnc1P(C)(C)=O [II-6] | ≤ 20 nM | > 2500 nM
COc1cc(Nc2ncc3cc(-c4nccnc4C)cc(C(C)C)c3n2)cnc1P(C)(C)=O [II-7] | 20 to 100 nM | 500 to 2500 nM
Cc1nccnc1-c1cc(C(C)C)c2nc(Nc3ccc(P(C)(C)=O)cn3)ncc2c1 [II-8] | 20 to 100 nM | > 2500 nM
Cc1cc(Nc2ncc3cc(-c4nccnc4C)cc(C(C)C)c3n2)ncc1P(C)(C)=O [II-9] | 20 to 100 nM | > 2500 nM
Cc1nc(Nc2ncc3cc(-c4nccnc4C)cc(C(C)C)c3n2)ccc1P(C)(C)=O [II-10] | 20 to 100 nM | > 2500 nM
Cc1cc(P(C)(C)=O)ccc1Nc1ncc2cc(-c3nccnc3C)cc(C(C)C)c2n1 [II-13] | 20 to 100 nM | > 2500 nM
COc1cc(P(C)(C)=O)ccc1Nc1ncc2cc(-c3nccnc3C)cc(C(C)C)c2n1 [II-14] | ≤ 20 nM | > 2500 nM
CCc1cc(P(C)(C)=O)ccc1Nc1ncc2cc(-c3nccnc3C)cc(C(C)C)c2n1 [II-15] | ≤ 20 nM | > 2500 nM
Cc1nccnc1-c1cc(C(C)C)c2nc(Nc3ccc(P(C)(C)=O)c(Cl)c3F)ncc2c1 [II-17] | ≤ 20 nM | 500 to 2500 nM
Cc1cc(Nc2ncc3cc(-c4nccnc4C)cc(C(C)C)c3n2)c(F)cc1P(C)(C)=O [II-21] | ≤ 20 nM | 500 to 2500 nM

Structure (SMILES) | IC50 [1] | IC50 [2]
Cc1nccnc1-c1cc(C2CC2)c2nc(Nc3ccc(P(C)(C)=O)cc3)ncc2c1 [II-30] | ≤ 20 nM | 500 to 2500 nM
Cc1nccnc1-c1cc(C2CC2)c2nc(Nc3ccc(P(C)(C)=O)cc3F)ncc2c1 [II-31] | ≤ 20 nM | > 2500 nM
COc1nc(P(C)(C)=O)ccc1Nc1ncc2cc(-c3nccnc3C)cc(C3CC3)c2n1 [II-32] | ≤ 20 nM | 500 to 2500 nM
Cc1nccnc1-c1cc(C(F)(F)F)c2nc(Nc3ccc(P(C)(C)=O)cc3)ncc2c1 [II-34] | ≤ 20 nM | > 2500 nM
Cc1nccnc1-c1cc(C(F)(F)F)c2nc(Nc3ccc(P(C)(C)=O)cc3F)ncc2c1 [II-35] | 20 to 100 nM | > 2500 nM
Cc1ncnc(C)c1-c1cc(C(C)C)c2nc(Nc3ccc(P(C)(C)=O)nc3)ncc2c1 [II-42] | 20 to 100 nM | > 2500 nM
Cc1cc(P(C)(C)=O)ncc1Nc1ncc2cc(-c3c(C)ncnc3C)cc(C(C)C)c2n1 [II-43] | 20 to 100 nM | > 2500 nM
COc1cc(P(C)(C)=O)ncc1Nc1ncc2cc(-c3c(C)ncnc3C)cc(C(C)C)c2n1 [II-44] | 20 to 100 nM | > 2500 nM
Cc1cc(Nc2ncc3cc(-c4c(C)ncnc4C)cc(C(C)C)c3n2)cnc1P(C)(C)=O [II-45] | ≤ 20 nM | > 2500 nM
Cc1ncnc(C)c1-c1cc(C(C)C)c2nc(Nc3ccc(P(C)(C)=O)cc3)ncc2c1 [II-50] | 20 to 100 nM | > 2500 nM
COc1cc(P(C)(C)=O)ccc1Nc1ncc2cc(-c3c(C)ncnc3C)cc(C(C)C)c2n1 [II-53] | 20 to 100 nM | > 2500 nM
COc1cc(Nc2ncc3cc(-c4c(C)ncnc4C)cc(C(C)C)c3n2)ccc1P(C)(C)=O [II-54] | ≤ 20 nM | > 2500 nM
Cc1ncnc(C)c1-c1cc(C(C)C)c2nc(Nc3ccc(P(C)(C)=O)c(C)c3F)ncc2c1 [II-56] | ≤ 20 nM | > 2500 nM
Cc1cc(Nc2ncc3cc(-c4c(C)ncnc4C)cc(C(C)C)c3n2)c(F)cc1P(C)(C)=O [II-59] | 20 to 100 nM | > 2500 nM
Cc1nccnc1-c1cc(C)c2nc(Nc3ccc(P(C)(C)=O)cc3)ncc2c1 [II-68] | 20 to 100 nM | > 2500 nM
COc1cc(Nc2ncc3cc(-c4nccnc4C)cc(C(C)C)c3n2)cc(OC)c1P(C)(C)=O [II-73] | ≤ 20 nM | 500 to 2500 nM
Cc1nccnc1-c1cc(C2CC2)c2nc(Nc3ccc(P(C)(C)=O)c(O)c3)ncc2c1 [II-75] | ≤ 20 nM | > 2500 nM
Cc1nccnc1-c1cc(C2CC2)c2nc(Nc3cc(O)c(P(C)(C)=O)cc3F)ncc2c1 [II-76] | ≤ 20 nM | > 2500 nM
Cc1c[nH]c(=O)cc1-c1cc(C(C)C)c2nc(Nc3cnn(C4COC4)c3C)ncc2c1 [III-41] | ≤ 20 nM | > 2500 nM
Cc1c[nH]c(=O)cc1-c1cc(C2CC2)c2nc(Nc3cnn(C4COC4)c3C)ncc2c1 [III-83] | ≤ 20 nM | > 2500 nM
